From patent US12408664B2 (priority 2018, dated 2025)
Several values for one entry are separate records, joined by “and”; a condition that tells them apart may be missing. Equal entries are not always repeated. Where two headings read alike, the source gives them in different places.

Experiments:
[1] = test system: F. oxysporum; assay: Fungal plugs on YPA or PDA amended with CaP; type: cell-based, Fusarium oxysporum; details: seven days, data not shown
Method: Cultures of F. oxysporum were grown on PDA medium until luxuriant. To test the effect of calcium propionate (CaP), fungal plugs were transferred to YPA or PDA amended with CaP and growth was monitored for seven days. YPA plates were amended with 1%, 4%, or 15% CaP.

[2] = test system: M. poae; type: cell-based, Magnaporthe poae
[3] = test system: G. graminis; assay: Established liquid cultures, two days calcium propionate then washout; type: cell-based, Gaeumannomyces graminis
Method: (§1) To further examine the impact of calcium propionate on established liquid cultures, MEB was inoculated by plug transfer and cultures were allowed to grow for one to six days. Following this, calcium propionate was added to active cultures to a final concentration of 1%, 2%, or 5% (w/v); control cultures had no calcium propionate. Calcium propionate was then added to established one to six day old cultures and cultures were allowed to grow in the presence of calcium propionate for two days, after which, calcium propionate was washed out and cultures were returned to MEB only. Growth following calcium propionate washout was recorded over 14 days.

[4] = test system: turfgrass; assay: Golf Course 1: appearance of treated turfgrass; type: in vivo, Festuca rubra; details: after 10 days
Method: Calcium propionate was dissolved in water to form a 5% (w/v) solution. […] Zone 1 was left untreated, Zone 2 was treated with 2.5 grams calcium propionate per square meter, Zone 3 was treated with 5 grams of calcium propionate per square meter, and Zone 4 was treated with 10 grams of calcium propionate per square meter. The turfgrass was comprised primarily of Festuca rubra. The calcium propionate 5% (w/v) solution was sprayed onto the turfgrass.
The four zones were visually inspected for dollar spot after 10 days. […] In contrast, dollar spot could, still be visually detected in untreated Zone 1.

[5] = test system: S. homoeocarpa; assay: Disrupted well-established culture transferred to amended MEB; type: cell-based, Scerotinia homoeocarpa; details: MEB with 1%, 2%, 5% or 10% (w/v) calcium propionate; five days
Excerpt: To examine the effect of calcium propionate on well-established cultures of S. homoeocarpa and M. poae, MEB was inoculated with agarose plugs as previously described. Cultures were allowed to grow for 10 days to establish a robust hyphal mat. After 10 days, hyphal mats were disrupted by pipetting to break up mycelium (disrupted culture). One milliliter of disrupted culture was transferred to MEB amended with 1%, 2%, 5%, or 10% (w/v) calcium propionate. MEB without calcium propionate was used as a control. Cultures were allowed to grow for five days following inoculation with disrupted mycelium.

[6] = test system: turfgrass; assay: Golf Course 2: appearance of treated turfgrass; type: in vivo, Agrostis capillaris; details: 3-4 grams per square meter every 10 days; 10 days following initial application
Method: Calcium propionate was dissolved in water to form a 5% (w/v) solution. […] The turfgrass was comprised primarily of Agrostis capillaris. The calcium propionate 5% (w/v) solution was sprayed onto the turfgrass at a concentration of 3-4 grams per square meter every 10 days.

[7] = test system: S. homoeocarpa; assay: Established liquid cultures, two days calcium propionate then washout; type: cell-based, Scerotinia homoeocarpa
Method: as §1

[8] = test system: M. poae; type: cell-based, Magnaporthe poae; details: MEB with 1, 2, 5 and 10% (w/v) calcium propionate; five days
[9] = test system: R. solani; assay: Growth on PDA with calcium propionate fully integrated into the agarose; type: cell-based, Rhizoctonia solani; details: for Growth, R. solani: single plate
Method: In contrast to the zone of inhibition assays described in Examples 1-3, for this experiment, PDA with calcium propionate fully integrated into the agarose was prepared. Thus, inoculants were grown on plates in which calcium propionate was incorporated at a uniform concentration throughout the plate, rather than the zones of concentration established by simple diffusion in the zone of inhibition assays. The PDA plates were amended with 5, 7.5, 10, or 12% (w/v) calcium propionate. Growth diameter was recorded for 15 days post inoculation. The data shown in Table 3 represent the results of single plate tests.

[10] = 1%, 2% or 5% (w/v), established one to six day old cultures, two days

CCC(=O)[O-].CCC(=O)[O-].[Ca+2] [calcium propionate]
F. oxysporum growth ([1]; YPA amended with 1% CaP): not impacted
F. oxysporum growth ([1]; YPA amended with 4% or 15% CaP): unable to grow
Growth, M. Poae ([2]; PDA with 5% (w/v) calcium propionate, day 4, single plate): 0 cm
Growth, M. Poae ([2]; PDA with 5% (w/v) calcium propionate, day 5, single plate): 0 cm
Growth, M. Poae ([2]; PDA with 5% (w/v) calcium propionate, day 8, single plate): 0 cm
Growth, M. Poae ([2]; PDA with 5% (w/v) calcium propionate, day 11, single plate): 0 cm
Growth, M. Poae ([2]; PDA with 5% (w/v) calcium propionate, day 15, single plate): 0 cm
Growth, M. Poae ([2]; PDA with 7.5% (w/v) calcium propionate, day 4, single plate): 0 cm
Growth, M. Poae ([2]; PDA with 7.5% (w/v) calcium propionate, day 5, single plate): 0 cm
Growth, M. Poae ([2]; PDA with 7.5% (w/v) calcium propionate, day 8, single plate): 0 cm
Growth, M. Poae ([2]; PDA with 7.5% (w/v) calcium propionate, day 11, single plate): 0 cm
Growth, M. Poae ([2]; PDA with 7.5% (w/v) calcium propionate, day 15, single plate): 0 cm
Growth, M. Poae ([2]; PDA with 10% (w/v) calcium propionate, day 4, single plate): 0 cm
Growth, M. Poae ([2]; PDA with 10% (w/v) calcium propionate, day 5, single plate): 0 cm
Growth, M. Poae ([2]; PDA with 10% (w/v) calcium propionate, day 8, single plate): 0 cm
Growth, M. Poae ([2]; PDA with 10% (w/v) calcium propionate, day 11, single plate): 0 cm
Growth, M. Poae ([2]; PDA with 10% (w/v) calcium propionate, day 15, single plate): 0 cm
Growth, M. Poae ([2]; PDA with 12% (w/v) calcium propionate, day 4, single plate): 0 cm
Growth, M. Poae ([2]; PDA with 12% (w/v) calcium propionate, day 5, single plate): 0 cm
Growth, M. Poae ([2]; PDA with 12% (w/v) calcium propionate, day 8, single plate): 0 cm
Growth, M. Poae ([2]; PDA with 12% (w/v) calcium propionate, day 11, single plate): 0 cm
Growth, M. Poae ([2]; PDA with 12% (w/v) calcium propionate, day 15, single plate): 0 cm
Growth, M. Poae ([2]; any of the concentrations tested (5, 7.5, 10, 12% w/v), 15 days): no growth
growth while calcium propionate was present, G. graminis [3, 10]: growth was inhibited
growth three days following removal of calcium propionate, G. graminis ([3]; all concentrations tested (1-5% w/v), data not shown): continued growth inhibition
growth up to two weeks following calcium propionate removal, G. graminis ([3]; concentrations as low as 1% (w/v)): no growth was observed
appearance of the turfgrass ([4]; Zone 2: 2.5 grams per square meter): appeared healthy
appearance of the turfgrass ([4]; Zone 3: 5 grams per square meter): appeared healthy
effect on the turfgrass ([4]; Zone 4: 10 grams per square meter): burning effect
growth of disrupted culture, S. homoeocarpa [5]: No growth was observed
appearance of the turfgrass [6]: appeared healthy
growth recovery over 14 days after removal, S. homoeocarpa ([7]; 1% or 2% (w/v) calcium propionate): varying degrees of growth recovery
growth while calcium propionate was present, S. homoeocarpa [7, 10]: growth was inhibited
growth recovery over 14 days after removal, S. homoeocarpa ([7]; 5% (w/v) treatment): no growth recovery was observed
growth three days following removal of calcium propionate, S. homoeocarpa ([7]; all concentrations tested (1-5% w/v)): continued growth inhibition
growth in liquid culture, M. poae [8]: no growth was observed
Growth, R. solani ([9]; PDA with 5% (w/v) calcium propionate, day 4): 1.3 cm
Growth, R. solani ([9]; PDA with 5% (w/v) calcium propionate, day 5): 1.7 cm
Growth, R. solani ([9]; PDA with 5% (w/v) calcium propionate, day 8): 2.5 cm
Growth, R. solani ([9]; PDA with 5% (w/v) calcium propionate, day 11): 3.2 cm
Growth, R. solani ([9]; PDA with 5% (w/v) calcium propionate, day 15): 4.6 cm
Growth, R. solani ([9]; PDA with 7.5% (w/v) calcium propionate, day 4): 0 cm
Growth, R. solani ([9]; PDA with 7.5% (w/v) calcium propionate, day 5): 1 cm
Growth, R. solani ([9]; PDA with 7.5% (w/v) calcium propionate, day 8): 1.2 cm
Growth, R. solani ([9]; PDA with 7.5% (w/v) calcium propionate, day 11): 1.2 cm
Growth, R. solani ([9]; PDA with 7.5% (w/v) calcium propionate, day 15): 2.0 cm and 2 cm
Growth, R. solani ([9]; PDA with 10% (w/v) calcium propionate, day 4): 0 cm
Growth, R. solani ([9]; PDA with 10% (w/v) calcium propionate, day 5): 0 cm
Growth, R. solani ([9]; PDA with 10% (w/v) calcium propionate, day 8): 0 cm
Growth, R. solani ([9]; PDA with 10% (w/v) calcium propionate, day 11): 0 cm
Growth, R. solani ([9]; PDA with 10% (w/v) calcium propionate, day 15): 0 cm
growth inhibition, R. solani ([9]; PDA with 10% and 12% (w/v) calcium propionate, 15 days): fully inhibited growth
Growth, R. solani ([9]; PDA with 12% (w/v) calcium propionate, day 4): 0 cm
Growth, R. solani ([9]; PDA with 12% (w/v) calcium propionate, day 5): 0 cm
Growth, R. solani ([9]; PDA with 12% (w/v) calcium propionate, day 8): 0 cm
Growth, R. solani ([9]; PDA with 12% (w/v) calcium propionate, day 11): 0 cm
Growth, R. solani ([9]; PDA with 12% (w/v) calcium propionate, day 15): 0 cm
